By inhibition is commonly meant the drop in the measured response relative to a control, in per cent.

Chain of S. aureus GyrB ATPase (P0A0K8 whole entry): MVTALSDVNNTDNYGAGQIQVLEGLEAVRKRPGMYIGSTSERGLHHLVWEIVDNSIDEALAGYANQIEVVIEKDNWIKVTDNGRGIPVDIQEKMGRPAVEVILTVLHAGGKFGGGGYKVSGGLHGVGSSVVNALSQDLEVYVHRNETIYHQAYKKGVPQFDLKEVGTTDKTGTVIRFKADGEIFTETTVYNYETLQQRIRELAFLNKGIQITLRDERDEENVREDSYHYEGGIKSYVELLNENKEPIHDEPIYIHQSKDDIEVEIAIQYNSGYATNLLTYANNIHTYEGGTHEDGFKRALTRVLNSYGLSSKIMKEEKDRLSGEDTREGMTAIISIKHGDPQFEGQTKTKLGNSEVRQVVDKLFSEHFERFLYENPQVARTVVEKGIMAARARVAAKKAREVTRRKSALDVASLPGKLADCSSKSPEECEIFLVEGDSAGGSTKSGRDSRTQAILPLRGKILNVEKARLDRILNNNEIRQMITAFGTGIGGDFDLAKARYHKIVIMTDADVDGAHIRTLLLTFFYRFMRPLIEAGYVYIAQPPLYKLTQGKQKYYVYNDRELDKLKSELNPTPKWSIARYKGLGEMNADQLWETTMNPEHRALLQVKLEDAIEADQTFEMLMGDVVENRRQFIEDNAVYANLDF
Chain of S. aureus GyrB ATPase (P0AES4 whole entry, further chain): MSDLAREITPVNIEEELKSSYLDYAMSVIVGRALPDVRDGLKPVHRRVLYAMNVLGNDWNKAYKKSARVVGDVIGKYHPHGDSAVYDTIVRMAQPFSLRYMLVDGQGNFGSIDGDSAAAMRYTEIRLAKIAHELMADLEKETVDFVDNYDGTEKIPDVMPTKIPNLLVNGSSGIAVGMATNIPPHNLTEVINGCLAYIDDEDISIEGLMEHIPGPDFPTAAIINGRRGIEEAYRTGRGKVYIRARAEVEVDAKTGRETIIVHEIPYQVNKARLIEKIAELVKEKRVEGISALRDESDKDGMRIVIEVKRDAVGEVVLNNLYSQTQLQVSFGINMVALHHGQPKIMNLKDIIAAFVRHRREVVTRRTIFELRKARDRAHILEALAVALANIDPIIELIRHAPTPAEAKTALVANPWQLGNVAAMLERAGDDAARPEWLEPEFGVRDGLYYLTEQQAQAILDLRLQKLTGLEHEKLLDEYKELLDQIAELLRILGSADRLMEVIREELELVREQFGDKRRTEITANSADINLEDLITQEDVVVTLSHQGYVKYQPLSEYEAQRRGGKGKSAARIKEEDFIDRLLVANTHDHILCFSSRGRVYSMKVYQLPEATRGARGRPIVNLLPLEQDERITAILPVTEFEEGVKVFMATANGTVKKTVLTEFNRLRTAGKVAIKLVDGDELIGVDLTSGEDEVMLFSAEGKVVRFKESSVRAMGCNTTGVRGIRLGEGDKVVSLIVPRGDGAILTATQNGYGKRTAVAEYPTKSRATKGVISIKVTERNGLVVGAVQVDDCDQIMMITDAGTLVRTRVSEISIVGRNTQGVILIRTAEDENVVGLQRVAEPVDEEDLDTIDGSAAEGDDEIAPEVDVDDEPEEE

The test has as its target S. aureus GyrB ATPase (Staphylococcus aureus, UniProt P0A0K8). Briefly: biochemical. The settings on record: compound at 1 μM; one value per test if tested more than once; read-out: % Inhibition of S. aureus GyrB ATPase. On the procedure: S. aureus GyrB ATPase Inhibition Activity: Compounds may be tested for inhibition of S. aureus GyrB ATPase activity using an ammonium molybdate/malachite green-based phosphate detection assay (Lanzetta, P. A., L. J. Alvarez, P. S. Reinach, and O. A. Candia, 1979, 100: 95-97). Assays can be performed in multiwell plates in 30 μl reactions containing: 50 mM Hepes buffer pH 7.5, 75 mM ammonium acetate, 8.0 mM magnesium chloride, 0.5 mM ethylenediaminetetraacetic acid, 5% glycerol, 1.0 mM 1,4-Dithio-DL-threitol, 200 nM bovine serum albumin, 1.0 μg/m1 sheared salmon sperm DNA, 250 pM E. coli GyrA, 250 pM S. aureus GyrB, 250 μM ATP, and compound in dimethylsulfoxide. Reactions can be quenched with 30 μl of ammonium molybdate/malachite green detection reagent containing 1.2 mM malachite green hydrochloride, 8.5 mM ammonium molybdate tetrahydrate, and 1 M hydrochloric acid. […] An IC50 measurement of compound potency for each compound can be determined from reactions performed in the presence of 10 different compound concentrations.
With `CCNC(=O)Nc1cc(-c2nc(C(F)(F)F)cs2)c(-c2ccc3c(=O)c(C(=O)NCCCO)cn(CC4CC4)c3c2)cn1` [Example 376, 1-(Cyclopropylmethyl)-7-{6-[(ethylcarbamoyl)amino]-4-[4-(trifluoromethyl)-1,3-thiazol-2-yl]pyridin-3-yl}-N-(3-hydroxypropyl)-4-oxo-1,4-dihydroquinoline-3-carboxamide], the inhibition at 1 µM turned out to be 108%.
The figure for `CCNC(=O)Nc1cc(-c2nc(C(F)(F)F)cs2)c(-c2ccc3c(=O)c(C(=O)NCCO)cn(CCO)c3c2)cn1` [Example 364, 7-{6-[(Ethylcarbamoyl)amino]-4-[4-(trifluoromethyl)-1,3-thiazol-2-yl]pyridin-3-yl}-N,1-bis(2-hydroxyethyl)-4-oxo-1,4-dihydroquinoline-3-carboxamide] is 97%; for `CCNC(=O)Nc1cc(-c2nc(C(F)(F)F)cs2)c(-c2ccc3c(c2)c(=O)c(C(=O)O)cn3[C@H](CO)C2CCCCC2)cn1` [Example 78, (S)-1-(1-cyclohexyl-2-hydroxyethyl)-6-(6-(3-ethylureido)-4-(4-(trifluoromethyl)thiazol-2-yl)pyridin-3-yl)-4-oxo-1,4-dihydroquinoline-3-carboxylic acid] it is 102%.
Take `CCNC(=O)Nc1cc(-c2nc(C(F)(F)F)cs2)c(-c2ccc3c(=O)c(C(=O)NCCN4CCN(C)CC4)cn(CCC(C)C)c3c2)cn1` [Example 340, 7-{6-[(ethylcarbamoyl)amino]-4-[4-(trifluoromethyl)-1,3-thiazol-2-yl]pyridin-3-yl}-1-(3-methylbutyl)-N-[2-(4-methylpiperazin-1-yl)ethyl]-4-oxo-1,4-dihydroquinoline-3-carboxamide]: the inhibition at 1 µM was 93%.
To `CCNC(=O)Nc1cc(-c2nc(C(F)(F)F)cs2)c(-c2ccc3c(=O)c(C(=O)NC)cn(Cc4ccccc4)c3c2)cn1` [Example 353, 1-Benzyl-7-{6-[(ethylcarbamoyl)amino]-4-[4-(trifluoromethyl)-1,3-thiazol-2-yl]pyridin-3-yl}-N-methyl-4-oxo-1,4-dihydroquinoline-3-carboxamide] belongs 99%; to `CCNC(=O)Nc1cc(-c2nc(C(F)(F)F)cs2)c(-c2ccc3c(c2)c(=O)c(C(=O)O)cn3C2CCN(C)CC2)cn1` [Example 323, 6-(6-(3-Ethylureido)-4-(4-(trifluoromethyl)thiazol-2-yl)pyridin-3-yl)-1-(1-methyl-piperidin-4-yl)-4-oxo-1,4-dihydro-quinoline-3-carboxylic acid], 106%.
Take `CCNC(=O)Nc1cc(-c2nc(C(F)(F)F)cs2)c(-c2ccc3c(c2)c(=O)c(C(=O)N2CCNCC2)cn3C(COC)COC)cn1` [Example 140, 1-{5-[1-(1,3-dimethoxypropan-2-yl)-4-oxo-3-(piperazin-1-ylcarbonyl)-1,4-dihydroquinolin-6-yl]-4-[4-(trifluoromethyl)-1,3-thiazol-2-yl]pyridin-2-yl}-3-ethylurea]: the inhibition at 1 µM came out at 95%.
To `CCNC(=O)Nc1cc(-c2nc(C(F)(F)F)cs2)c(-c2ccc3c(=O)c(C(=O)NCCN4CCOCC4)cn(Cc4cccnc4)c3c2)cn1` [Example 361, 7-{6-[(ethylcarbamoyl)amino]-4-[4-(trifluoromethyl)-1,3-thiazol-2-yl]pyridin-3-yl}-N-[2-(morpholin-4-yl)ethyl]-4-oxo-1-(pyridin-3-ylmethyl)-1,4-dihydroquinoline-3-carboxamide] belongs 97%; to `CCCNC(=O)Nc1cc(-c2nc(C(F)(F)F)cs2)c(-c2ccc3c(c2)c(=O)c(C(=O)N2CCN(S(C)(=O)=O)CC2)cn3CCN(C)C)cn1` [Example 157, 1-(5-(1-(2-(dimethylamino)ethyl)-3-(4-(methylsulfonyl)piperazine-1-carbonyl)-4-oxo-1,4-dihydroquinolin-6-yl)-4-(4-(trifluoromethyl)thiazol-2-yl)pyridin-2-yl)-3-propylurea], 103%; to `CCCNC(=O)Nc1cc(-c2nc(C(F)(F)F)cs2)c(-c2ccc3c(c2)c(=O)c(C(=O)N2CCN(S(=O)(=O)N(C)C)CC2)cn3C2CN(C)C2)cn1` [Example 164, N,N-dimethyl-4-(1-(1-methylazetidin-3-yl)-4-oxo-6-(6-(3-propylureido)-4-(4-(trifluoromethyl)thiazol-2-yl)pyridin-3-yl)-1,4-dihydroquinoline-3-carbonyl)piperazine-1-sulfonamide], 107%.
With `CCNC(=O)Nc1cc(-c2nc(C(F)(F)F)cs2)c(-c2ccc3c(c2)c(=O)c(C(=O)O)cn3[C@@H]2CCCN(Cc3cccn3C)C2)cn1` [Example 282, (R)-ethyl 6-(6-(3-ethylureido)-4-(4-(trifluoromethyl)thiazol-2-yl)pyridin-3-yl)-1-(1-((1-methyl-1H-pyrrol-2-yl)methyl)piperidin-3-yl)-4-oxo-1,4-dihydroquinoline-3-carboxylic acid], the inhibition at 1 µM came out at 105%.
With `CCNC(=O)Nc1cc(-c2nc(C(F)(F)F)cs2)c(-c2ccc3c(c2)c(=O)c(C(=O)O)cn3C[C@@H]2CCCN(CC)C2)cn1` [Example 251, (R)-1-((1-ethylpiperidin-3-yl)methyl)-6-(6-(3-ethylureido)-4-(4-(trifluoromethyl)thiazol-2-yl)pyridin-3-yl)-4-oxo-1,4-dihydroquinoline-3-carboxylic acid], the inhibition at 1 µM worked out at 113%.
The figure for `CCNC(=O)Nc1cc(-c2nc(C(F)(F)F)cs2)c(-c2ccc3c(c2)c(=O)c(C(=O)N2CCN(S(C)(=O)=O)CC2)cn3C2CN(C)C2)cn1` [Example 163, 1-ethyl-3-(5-(1-(1-methylazetidin-3-yl)-3-(4-(methylsulfonyl)piperazine-1-carbonyl)-4-oxo-1,4-dihydroquinolin-6-yl)-4-(4-(trifluoromethyl)thiazol-2-yl)pyridin-2-yl)urea] is 106%; for `CCCn1cc(C(=O)NCCO)c(=O)c2ccc(-c3cnc(NC(=O)NCC)cc3-c3nc(C(F)(F)F)cs3)cc21` [Example 348, 7-{6-[(ethylcarbamoyl)amino]-4-[4-(trifluoromethyl)-1,3-thiazol-2-yl]pyridin-3-yl}-N-(2-hydroxyethyl)-4-oxo-1-propyl-1,4-dihydroquinoline-3-carboxamide] it is 98%.
For the compound `CCNC(=O)Nc1cc(-c2nc(C(F)(F)F)cs2)c(-c2ccc3c(=O)c(C(=O)NCCN(C)C)cn(CC)c3c2)cn1` [Example 332, N-[2-(dimethylamino)ethyl]-1-ethyl-7-{6-[(ethylcarbamoyl)amino]-4-[4-(trifluoromethyl)-1,3-thiazol-2-yl]pyridin-3-yl}-4-oxo-1,4-dihydroquinoline-3-carboxamide], the inhibition at 1 µM is 109%.
Regarding `CCNC(=O)Nc1cc(-c2nc(C(F)(F)F)cs2)c(-c2ccc3c(c2)c(=O)c(C(=O)N2CCN(C(C)=O)CC2)cn3C(COC)COC)cn1` [Example 144, 1-(5-{3-[(4-acetylpiperazin-1-yl)carbonyl]-1-(1,3-dimethoxypropan-2-yl)-4-oxo-1,4-dihydroquinolin-6-yl}-4-[4-(trifluoromethyl)-1,3-thiazol-2-yl]pyridin-2-yl)-3-ethylurea], the inhibition at 1 µM came to 94%.
To `CCNC(=O)Nc1cc(-c2nc(C(F)(F)F)cs2)c(-c2ccc3c(=O)c(C(=O)NCCN4CCN(C)CC4)cn(CC(C)C)c3c2)cn1` [Example 346, 7-{6-[(ethylcarbamoyl)amino]-4-[4-(trifluoromethyl)-1,3-thiazol-2-yl]pyridin-3-yl}-N-[2-(4-methylpiperazin-1-yl)ethyl]-1-(2-methylpropyl)-4-oxo-1,4-dihydroquinoline-3-carboxamide] belongs 87%.
The figure for `CCNC(=O)Nc1cc(-c2nc(C(F)(F)F)cs2)c(-c2ccc3c(c2)c(=O)c(C(=O)O)cn3CC(C)N(C)C)cn1` (stereo not shown) [Example 277, 1-(2-(dimethylamino)propyl)-6-(6-(3-ethylureido)-4-(4-(trifluoromethyl)thiazol-2-yl)pyridin-3-yl)-4-oxo-1,4-dihydroquinoline-3-carboxylic acid] is 103%; for `CC(C)NC(=O)Nc1cc(-c2nc(C(F)(F)F)cs2)c(-c2ccc3c(c2)c(=O)c(C(=O)O)cn3CCC2CCN(C)CC2)cn1` [Example 202, 6-(6-(3-isopropylureido)-4-(4-(trifluoromethyl)thiazol-2-yl)pyridin-3-yl)-1-(2-(1-methylpiperidin-4-yl)ethyl)-4-oxo-1,4-dihydroquinoline-3-carboxylic acid] it is 103%; for `CCNC(=O)Nc1cc(-c2nc(C(F)(F)F)cs2)c(-c2ccc3c(=O)c(C(=O)O)cn(CC4CC4)c3c2)cn1` [Example 32, 1-(cyclopropylmethyl)-7-{6-[(ethylcarbamoyl)amino]-4-[4-(trifluoromethyl)-1,3-thiazol-2-yl]pyridin-3-yl}-4-oxo-1,4-dihydroquinoline-3-carboxylic acid] it is 98%.
To `CCNC(=O)Nc1cc(-c2nc(CC)cs2)c(-c2ccc3c(c2)c(=O)c(C(=O)NC)cn3CC)cn1` [Example 37, 1-ethyl-6-(4-(4-ethylthiazol-2-yl)-6-(3-ethylureido)pyridin-3-yl)-N-methyl-4-oxo-1,4-dihydroquinoline-3-carboxamide] belongs 96%.
In the case of `CCNC(=O)Nc1cc(-c2nc(C(F)(F)F)cs2)c(-c2ccc3c(c2)c(=O)c(C(=O)O)cn3CCC2CCN(C)CC2)cn1` [Example 89, 6-(6-(3-ethylureido)-4-(4-(trifluoromethyl)thiazol-2-yl)pyridin-3-yl)-1-(2-(1-methylpiperidin-4-yl)ethyl)-4-oxo-1,4-dihydroquinoline-3-carboxylic acid], the inhibition at 1 µM is 91%.

(Values after patent US8283361B2 (AstraZeneca AB, priority 2008, dated 2012).)
